According to the supplement of paper PMC10307832:

Experiments:
Test in all cases: relative viability (nuclei count vs DMSO), 5 days (fraction); higher = more cells survive
Ispinesib + Olaparib = compound: Cc1ccc(C(=O)N(CCCN)[C@@H](c2nc3cc(Cl)ccc3c(=O)n2Cc2ccccc2)C(C)C)cc1 [Ispinesib] + O=C(c1cc(Cc2n[nH]c(=O)c3ccccc23)ccc1F)N1CCN(C(=O)C2CC2)CC1 [Olaparib] (partner 8 µM)
How it was run: (§1)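 Relative viability was taken as the ratio of nuclei in treated wells to nuclei in vehicle wells. Lung cancer cell lines in 1536-well plates received compounds by pin tool one day after seeding, either one drug alone or a fixed anchor-drug dose plus five library-drug doses (not always all listed) in √10 steps. Nuclei were counted on 4× images after 5 days of treatment, and values are medians of duplicate plates.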

Linsitinib + Pemetrexed = compound: C[C@]1(O)C[C@@H](c2nc(-c3ccc4ccc(-c5ccccc5)nc4c3)c3c(N)nccn32)C1 [Linsitinib] + Nc1nc2[nH]cc(CCc3ccc(C(=O)N[C@@H](CCC(=O)O)C(=O)O)cc3)c2c(=O)[nH]1 [Pemetrexed] (partner 0.2 µM)
How it was run: as §1

Ispinesib + Crizotinib = compound: Cc1ccc(C(=O)N(CCCN)[C@@H](c2nc3cc(Cl)ccc3c(=O)n2Cc2ccccc2)C(C)C)cc1 [Ispinesib] + C[C@@H](Oc1cc(-c2cnn(C3CCNCC3)c2)cnc1N)c1c(Cl)ccc(F)c1Cl [Crizotinib] (partner 1 µM)
How it was run: as §1

Linsitinib + Bortezomib = compound: C[C@]1(O)C[C@@H](c2nc(-c3ccc4ccc(-c5ccccc5)nc4c3)c3c(N)nccn32)C1 [Linsitinib] + CC(C)C[C@H](NC(=O)[C@H](Cc1ccccc1)NC(=O)c1cnccn1)B(O)O [Bortezomib] (partner 0.002 µM)
How it was run: as §1

Cell Line	relative viability (Ispinesib + Olaparib; first compound 0.001 µM)	relative viability (Ispinesib + Olaparib; first compound 0.003162 µM)	relative viability (Ispinesib + Olaparib; first compound 0.01 µM)	relative viability (Ispinesib + Olaparib; first compound 0.03162 µM)	relative viability (Ispinesib + Olaparib; first compound 0.1 µM)	relative viability (Linsitinib + Pemetrexed; first compound 0.01 µM)	relative viability (Linsitinib + Pemetrexed; first compound 0.03162 µM)	relative viability (Linsitinib + Pemetrexed; first compound 0.1 µM)	relative viability (Linsitinib + Pemetrexed; first compound 1 µM)	relative viability (Ispinesib + Crizotinib; first compound 0.001 µM)	relative viability (Ispinesib + Crizotinib; first compound 0.003162 µM)	relative viability (Ispinesib + Crizotinib; first compound 0.03162 µM)	relative viability (Ispinesib + Crizotinib; first compound 0.1 µM)	relative viability (Linsitinib + Bortezomib; first compound 0.01 µM)	relative viability (Linsitinib + Bortezomib; first compound 0.03162 µM)	relative viability (Linsitinib + Bortezomib; first compound 0.1 µM)	relative viability (Linsitinib + Bortezomib; first compound 0.3162 µM)	relative viability (Linsitinib + Bortezomib; first compound 1 µM)	relative viability (Linsitinib + Pemetrexed; first compound 0.3162 µM)	relative viability (Ispinesib + Crizotinib; first compound 0.01 µM)
NCI-H460	0.538	0.504	0.436	0.597	0.195	0.0547	0.0538	0.065	0.0715	1.11	1.07	0.38	0.083	1.07	1.07	1.14	0.92	1.07	–	–
NCI-H23	0.306	0.379	0.336	0.384	0.175	0.78	0.474	0.786	0.419	0.475	0.46	0.499	0.283	0.96	1.17	1.06	0.681	0.589	0.394	0.595
LOU-NH91	0.929	0.915	0.969	0.906	0.369	0.405	0.345	0.394	0.392	0.764	0.744	0.671	0.536	0.436	0.504	0.581	0.429	0.478	0.357	0.706
NCI-H2009	0.735	0.678	0.793	0.859	0.257	1.15	0.944	1.09	0.942	1.04	1.01	0.589	0.288	1.01	0.926	1.07	0.185	0.898	0.946	0.999
NCI-H2126	0.986	0.963	0.981	1.08	0.85	0.707	0.67	0.779	0.598	1.03	1.05	1.07	0.923	1.13	1.14	1.13	0.687	1.06	0.511	1.09
ChaGo-K-1	0.399	0.449	0.431	0.445	0.382	0.263	0.243	0.271	0.261	1.26	1.3	0.841	0.894	1.05	0.98	0.922	0.443	1	–	1.26
NCI-H1437	0.685	0.653	0.763	0.7	0.256	0.317	0.247	0.307	0.275	0.993	0.971	0.902	0.195	0.561	0.507	0.545	0.302	0.38	0.288	1.11
SK-LU-1	0.606	0.449	0.393	0.435	0.356	0.913	0.686	0.997	0.985	1.05	0.932	0.776	0.439	1.19	0.659	1.25	0.492	0.561	0.894	0.968
NCI-H838	0.914	0.875	1.11	0.668	0.203	0.252	0.209	0.256	0.212	0.955	0.901	0.725	0.285	0.809	0.898	0.755	0.153	0.385	0.214	1.22
NCI-H1755	0.909	0.928	0.963	0.987	0.759	0.388	0.401	0.653	0.398	0.881	0.622	0.864	0.461	0.939	0.882	0.981	0.661	0.794	0.234	0.945
NCI-H2228	0.857	0.717	0.543	0.418	0.327	0.398	0.297	0.357	0.331	0.511	0.4	0.374	0.207	1.05	0.89	0.787	0.72	0.765	0.311	0.539
NCI-H1915	0.262	0.266	0.298	0.258	0.209	0.558	0.291	0.495	0.486	0.972	0.675	0.842	0.432	0.948	0.979	0.961	0.918	0.671	0.588	0.926
NCI-H2347	0.504	0.692	0.592	0.559	0.525	0.418	0.445	0.409	0.416	0.714	0.833	0.544	0.402	0.885	0.737	0.941	0.77	1.05	0.399	0.717
HARA	1.03	0.83	0.592	0.707	0.316	0.258	0.198	0.22	0.239	1.33	1.18	1.06	0.188	1.11	1.08	1.21	0.666	1.15	–	1.24
NCI-H2085	0.747	0.779	0.845	0.792	0.544	0.887	0.887	0.934	0.905	0.931	0.973	0.777	0.56	1.03	1.06	0.997	0.888	0.976	0.928	0.701
NCI-H650	0.361	0.384	0.409	0.427	0.278	0.878	1.05	0.923	0.739	0.526	0.669	0.595	0.404	0.721	0.768	0.863	–	0.584	–	0.826

Cell Line	relative viability (Ispinesib + Olaparib; first compound 0.001 µM)	relative viability (Ispinesib + Olaparib; first compound 0.003162 µM)	relative viability (Ispinesib + Olaparib; first compound 0.01 µM)	relative viability (Ispinesib + Olaparib; first compound 0.03162 µM)	relative viability (Ispinesib + Olaparib; first compound 0.1 µM)	relative viability (Linsitinib + Pemetrexed; first compound 0.01 µM)	relative viability (Linsitinib + Pemetrexed; first compound 0.03162 µM)	relative viability (Linsitinib + Pemetrexed; first compound 0.1 µM)	relative viability (Linsitinib + Pemetrexed; first compound 1 µM)	relative viability (Ispinesib + Crizotinib; first compound 0.001 µM)	relative viability (Ispinesib + Crizotinib; first compound 0.003162 µM)	relative viability (Ispinesib + Crizotinib; first compound 0.03162 µM)	relative viability (Ispinesib + Crizotinib; first compound 0.1 µM)	relative viability (Linsitinib + Bortezomib; first compound 0.01 µM)	relative viability (Linsitinib + Bortezomib; first compound 0.03162 µM)	relative viability (Linsitinib + Bortezomib; first compound 0.1 µM)	relative viability (Linsitinib + Bortezomib; first compound 0.3162 µM)	relative viability (Linsitinib + Bortezomib; first compound 1 µM)	relative viability (Linsitinib + Pemetrexed; first compound 0.3162 µM)	relative viability (Ispinesib + Crizotinib; first compound 0.01 µM)
NCI-H1993	1.08	1.07	1.11	1.23	0.822	0.59	0.621	0.565	0.404	0.837	0.914	0.891	0.661	1.26	1.29	1.32	0.797	0.695	0.449	0.874
EMC-BAC-2	0.479	0.474	0.513	0.418	0.325	0.397	0.394	0.447	0.432	0.914	0.847	0.751	0.481	1.08	1.05	1.01	0.628	0.917	0.448	0.756
NCI-H2087	0.708	0.694	0.801	0.545	0.145	0.559	0.591	0.571	0.646	0.839	1	0.61	0.146	0.947	0.97	0.945	0.594	0.641	0.555	0.995
NCI-H441	0.529	0.516	0.631	0.237	0.247	0.246	0.284	0.259	0.291	0.834	0.697	0.217	0.222	0.398	0.428	0.455	0.586	0.413	0.234	0.485
LXF-289	1.07	1.21	1.44	1.05	0.95	0.879	0.88	0.927	0.861	0.798	0.815	0.759	0.397	0.95	0.96	0.994	0.743	0.977	0.777	0.888
NCI-H661	0.737	0.848	0.805	0.505	0.255	0.904	0.738	0.9	0.895	1.02	–	0.736	0.376	0.893	0.801	0.761	0.986	0.749	0.935	1.04
PC-3 [JPC-3]	1.23	1.31	0.887	1.12	0.541	1.13	1.04	1.2	0.665	0.906	1.04	1.04	0.913	0.745	0.824	0.821	0.637	0.713	0.891	1.11
HCC-366	0.355	0.434	0.372	0.476	0.0931	0.138	0.0729	0.156	0.127	0.6	0.563	0.848	0.0887	1.06	1.02	1.1	0.959	0.906	0.119	1.22
NCI-H1651	0.183	0.217	0.179	0.169	0.19	0.345	0.489	0.56	0.596	0.855	0.936	0.959	0.735	0.954	0.976	0.792	0.82	0.916	0.608	0.99
NCI-H1355	0.736	0.806	0.889	0.736	0.328	1.11	0.759	0.945	0.637	1.13	1.19	1.15	0.451	1.19	1.25	1.18	0.748	0.79	0.798	1.29
LC-2-ad	0.728	0.728	0.711	0.816	0.293	0.272	0.264	0.256	0.259	0.447	0.317	0.368	0.283	1	1.1	1.02	0.664	0.636	0.266	0.439
HCC-827	0.652	0.672	0.67	0.686	0.601	0.149	0.24	0.32	0.262	0.965	0.91	0.918	0.69	1.04	1.04	0.934	0.827	1.01	–	0.957
COR-L23	0.31	0.34	0.308	0.226	0.138	0.202	0.184	0.189	0.18	0.68	0.729	0.311	0.248	0.861	1.03	1.08	0.896	1.06	0.184	0.882
NCI-H3122	0.674	0.683	0.743	0.615	0.524	0.18	0.177	0.212	0.196	0.28	0.27	0.314	0.202	0.994	1.05	1.04	0.86	1.03	0.184	0.274
BEN	1.03	1.35	1.13	0.832	0.782	0.599	0.723	0.704	0.63	1.08	1.01	0.507	0.431	0.884	0.78	0.658	0.612	0.626	0.562	1.04
NCI-H647	0.749	0.545	0.681	0.172	0.143	0.228	0.115	0.185	0.197	1.18	0.869	0.416	0.207	1.03	1.12	1.07	–	0.811	0.172	0.942
